The values below come from patent US20260240842A1, “METHODS TO PREVENT THERAPY RESISTANCE IN MELANOMA VIA BLOCKING GENOMIC INSTABILITY” (THE REGENTS OF THE UNIVERSITY OF CALIFORNIA, priority 2022, published 2026).

For this experiment, the system named is acquired MAPKi-resistant sub-lines (n=9) isogenic to the human BRAF^V600MUT and NRAS^Q61MUT parental cell lines. Nature of the experiment: Long-term clonogenic growth of acquired MAPKi-resistant sub-lines. It counts as cell-based. As to conditions: in combination with MAPKi, lower range of the concentrations tested. How it is done:
FIGS. 4A-4U. DNA-PKi and/or PARPi co-treatment prevents acquired MAPKi-resistance in human melanoma cell lines. FIGS. 4A to 4O: Long-term clonogenic growth of isogenic parental and acquired MAPKi-resistant BRAF^V600MUT (4A to 4H) or NRAS^Q61MUT (4I to 4O) human melanoma cell lines showing acquired-resistant colonies to BRAFi+MEKi (PLX4032 at 0.5 mM, AZD6244 at 0.5 mM in 4A and 4G; PLX4032 at 0.25 mM, AZD6244 at 0.25 mM in 4D; PLX4032 at 1 mM, AZD6244 at 1 mM in 4B, 4C, 4E, 4F and 4H) or MEKi (trametinib at 0.005 mM in I and 0.01 mM in 4J and 4N; trametinib at 0.1 mM in 4K, 4M and 4O) and their suppression by indicated co-treatments with DNA-PKi (NU7026) and/or PARPi (ABT888) at indicated concentrations. Top, representative cultures; bottom, quantifications over n=4 fields (mean±SD). Data representative of 2 to 4 independent repeats. […] Representative results of two independent experiments; quantification of n=4 fields (mean±SD). […] Left, representative cultures; right, quantifications over n=4 fields (mean±SD). […] Top, representative cultures; bottom, quantifications over n=4 fields (mean±SD). […]

For `C[C@]1(c2nc3c(C(N)=O)cccc3[nH]2)CCCN1` [ABT888, veliparib], the “anti-clonogenic activity in acquired MAPKi-resistant sub-lines compared to isogenic parental lines” value is listed as “no or reduced anti-clonogenic activity”.

On to `O=c1cc(N2CCOCC2)oc2c1ccc1ccccc12` [NU7026], for which the “anti-clonogenic activity in acquired MAPKi-resistant sub-lines compared to isogenic parental lines” value was “no or reduced anti-clonogenic activity”.
